The assay has as its target T1, mGluR5 receptor (pig) (Sus scrofa, UniProt I3LUI7).
T1 construct: 450 μg protein from brain homogenate is incubated with 5 nM ^3[H]-MPEP; from tissue; host or cells: pig brain halves without medulla, cerebellum and pons
In words: [3H]-MPEP bond in the mGluR5 receptor bond assay (pig brain homogenate). Format: binding. As to conditions: 10 μM test compound; 5 nM [3H]-MPEP; 450 μg protein pig brain homogenate; 60 min room temperature. The method, then: I. Method for Determining the Inhibition of the [^3H]-MPEP Bond in the mGluR5 Receptor Bond Assay
Pig brain homogenate is produced by homogenisation (Polytron PT 3000, Kinematica AG, 10,000 rpm for 90 seconds) of pig brain halves without medulla, cerebellum and pons in buffer pH 8.0 (30 mM Hepes, Sigma, order no. H3375+1 tablet complete to 100 ml, Roche Diagnostics, order no. 1836145) in the ratio 1:20 (brain weight/volume) and differential centrifugation at 900×g and 40,000×g. In each case, 450 μg protein from brain homogenate is incubated with 5 nM ^3[H]-MPEP (Tocris, order no. […]
Thereafter, the batches are filtered with the help of a Brandel Cell Harvester (Brandel, TYP Robotic 9600) on unifilter plates with glass fibre filter mats (Perkin Elmer, order no. 6005177) and subsequently washed with buffer (as above) 3 times with in each case 250 μl per sample. The filter plates are subsequently dried for 60 min at 55° C. 30 μL Ultima Gold™ scintillator (Packard BioScience, order no. 6013159) is subsequently added per well and the samples are measured after 3 hours on the β-counter (Mikrobeta, Perkin Elmer). The unspecific bond is determined by addition of 10 μM MPEP (Tocris, order no. 1212).

T1 sequence (I3LUI7 19-1212): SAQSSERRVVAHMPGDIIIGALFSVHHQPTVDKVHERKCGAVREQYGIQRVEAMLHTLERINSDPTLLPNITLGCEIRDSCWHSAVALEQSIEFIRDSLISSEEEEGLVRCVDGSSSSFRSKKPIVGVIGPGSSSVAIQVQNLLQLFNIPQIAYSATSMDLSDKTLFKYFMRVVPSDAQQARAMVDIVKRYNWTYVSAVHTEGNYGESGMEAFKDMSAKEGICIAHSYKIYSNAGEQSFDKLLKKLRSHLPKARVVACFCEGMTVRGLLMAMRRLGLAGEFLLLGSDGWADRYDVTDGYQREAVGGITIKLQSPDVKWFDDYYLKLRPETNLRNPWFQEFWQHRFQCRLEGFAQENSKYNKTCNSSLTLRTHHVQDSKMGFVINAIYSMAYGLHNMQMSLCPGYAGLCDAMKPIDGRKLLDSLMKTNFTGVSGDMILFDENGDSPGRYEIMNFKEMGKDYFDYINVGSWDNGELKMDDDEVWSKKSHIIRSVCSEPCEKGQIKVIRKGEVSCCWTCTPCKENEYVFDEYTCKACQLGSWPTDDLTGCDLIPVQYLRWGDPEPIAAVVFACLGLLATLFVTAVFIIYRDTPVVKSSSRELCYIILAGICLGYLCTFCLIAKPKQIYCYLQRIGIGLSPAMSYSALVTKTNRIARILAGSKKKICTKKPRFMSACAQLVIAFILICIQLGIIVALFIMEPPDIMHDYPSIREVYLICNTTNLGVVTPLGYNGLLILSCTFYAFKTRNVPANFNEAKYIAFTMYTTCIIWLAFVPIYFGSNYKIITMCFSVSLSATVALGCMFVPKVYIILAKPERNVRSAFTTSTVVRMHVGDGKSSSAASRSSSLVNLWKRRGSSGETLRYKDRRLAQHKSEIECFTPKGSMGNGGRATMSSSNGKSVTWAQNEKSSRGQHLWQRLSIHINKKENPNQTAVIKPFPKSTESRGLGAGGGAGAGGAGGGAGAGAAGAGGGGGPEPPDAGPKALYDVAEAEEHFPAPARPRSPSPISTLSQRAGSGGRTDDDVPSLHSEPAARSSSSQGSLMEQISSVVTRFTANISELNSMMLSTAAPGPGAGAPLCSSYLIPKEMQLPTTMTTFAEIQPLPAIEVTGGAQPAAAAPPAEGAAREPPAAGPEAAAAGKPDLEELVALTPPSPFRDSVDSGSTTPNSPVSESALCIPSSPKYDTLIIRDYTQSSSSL

With `N#Cc1cccc(C#CC(=O)NCCc2ccc(F)cc2)c1` [Example 99, 3-(3-cyanophenyl)-N-(4-fluorophenethyl)propiolamide], the inhibition at 10 µM amounted to 89%.

On to `O=C(C#Cc1ccccc1)NCCc1ccc(Cl)c(Cl)c1` [Example 101, N-(3,4-dichlorophenethyl)-3-phenylpropiolamide], for which the inhibition at 10 µM came to 89%.

In the case of `Cc1cccc(C#CC(=O)NCCc2ccc(Cl)c(Cl)c2)c1` [Example 102, N-(3,4-dichlorophenethyl)-3-m-tolylpropiolamide], the inhibition at 10 µM turned out to be 105%.

With `O=C(C#Cc1cccs1)NCCc1ccc(Cl)c(Cl)c1` [Example 103, N-(3,4-dichlorophenethyl)-3-(thiophene-2-yl)propiolamide], the inhibition at 10 µM was found to be 88%.

With `N#Cc1cccc(C#CC(=O)NCCc2ccc(Cl)c(Cl)c2)c1` [Example 104, 3-(3-cyanophenyl)-N-(3,4-dichlorophenethyl)propiolamide], the inhibition at 10 µM worked out at 84%.

Turning to `O=C(C#Cc1ccc(F)cc1F)NCCc1cccs1` [Example 117, 3-(2,4-difluorophenyl)-N-(2-(thiophene-2-yl)ethyl)propiolamide], the inhibition at 10 µM came out at 33%.

With `O=C(C#Cc1ccccc1F)NCCc1cccs1` [Example 118, 3-(2-fluorophenyl)-N-(2-(thiophene-2-yl)ethyl)propiolamide], the inhibition at 10 µM amounted to 67%.

For the compound `COc1cccc(C#CC(=O)NCCc2ccccc2OC)c1` [Example 132, N-(2-methoxyphenethyl)-3-(3-methoxyphenyl)propiolamide], the inhibition at 10 µM amounted to 83%.

With `COc1cccc(C#CC(=O)NCCc2ccc(Cl)cc2)c1` [Example 133, N-(4-chlorophenethyl)-3-(3-methoxyphenyl)propiolamide], the inhibition at 10 µM amounted to 65%.

As for `COc1ccccc1CCNC(=O)C#Cc1ccc(F)c(C)c1` [Example 134, 3-(4-fluoro-3-methylphenyl)-N-(2-methoxyphenethyl)propiolamide], the inhibition at 10 µM was 77%.

Turning to `Cc1cc(C#CC(=O)NCCc2ccc(Cl)cc2)ccc1F` [Example 135, N-(4-chlorophenethyl)-3-(4-fluoro-3-methylphenyl)propiolamide], the inhibition at 10 µM amounted to 44%.

Turning to `COc1ccccc1CCNC(=O)C#Cc1ccccc1` [Example 136, N-(2-methoxyphenethyl)-3-phenylpropiolamide], the inhibition at 10 µM stood at 110%.

On to `O=C(C#Cc1ccccc1)NCCc1ccc(Cl)cc1` [Example 137, N-(4-chlorophenethyl)-3-phenylpropiolamide], for which the inhibition at 10 µM was found to be 67%.

`COc1ccccc1CCNC(=O)C#Cc1cccc(C)c1` [Example 138, N-(2-methoxyphenethyl)-3-m-tolylpropiolamide]: the inhibition at 10 µM was 97%.

As for `Cc1cccc(C#CC(=O)NCCc2ccc(Cl)cc2)c1` [Example 139, N-(4-chlorophenethyl)-3-m-tolylpropiolamide], the inhibition at 10 µM was found to be 91%.

In the case of `O=C(C#Cc1ccc(F)cc1)NCCc1ccc(Cl)cc1` [Example 140, N-(4-chlorophenethyl)-3-(4-fluorophenyl)propiolamide], the inhibition at 10 µM is 53%.

Consider `O=C(C#Cc1ccccc1F)NCCc1cccc(Cl)c1` [Example 148, N-(3-chlorophenethyl)-3-(2-fluorophenyl)propiolamide], for which the inhibition at 10 µM came to 79%.

As for `Cc1ccc(CCNC(=O)C#Cc2ccccc2F)cc1` [Example 149, 3-(2-fluorophenyl)-N-(4-methylphenethyl)propiolamide], the inhibition at 10 µM turned out to be 57%.

Turning to `O=C(C#Cc1ccccc1F)NCCc1ccc(F)cc1` [Example 151, N-(4-fluorophenethyl)-3-(2-fluorophenyl)propiolamide], the inhibition at 10 µM stood at 66%.

Take `COc1ccccc1CCNC(=O)C#Cc1cccs1` [Example 189, N-(2-methoxyphenethyl)-3-(thiophene-2-yl)propiolamide]: the inhibition at 10 µM is 85%.

Regarding `O=C(C#Cc1cccs1)NCCc1ccc(Cl)cc1` [Example 190, N-(4-chlorophenethyl)-3-(thiophene-2-yl)propiolamide], the inhibition at 10 µM turned out to be 65%.

Values taken from patent publication US20090182020A1, “SUBSTITUTED BIS(HETERO)AROMATIC N--ETHYLPROPIOLAMIDES AND USE THEREOF FOR PRODUCTION OF MEDICAMENTS” (GRUNENTHAL GMBH, priority 2005, published 2009).
